The values that follow come from paper PMC8468039, “Development of New Meridianin/Leucettine-Derived Hybrid Small Molecules as Nanomolar Multi-Kinase Inhibitors with Antitumor Activity” (Biomedicines, 2021).

In series [1] the target is T1, FMS (Homo sapiens, UniProt P07333).
T1 construct: purchased Reaction Biology Corp
Briefly: In vitro kinase inhibition assay (HotSpot, Reaction Biology). Type of series: biochemical. The following applies: for inhibition at 10 µM: read-out: Percent Inhibition, FMS; for IC50: 10-dose, 3-fold serial dilution starting at 100 μM; for fold more potent than imatinib over FMS: from IC50 values. The protocol: (§1) The in vitro kinase inhibition assay was carried out by Reaction Biology Corp. (Reaction Biology Corp., Chester, PA, USA) Kinase HotSpot^SM service (http://www.reactionbiology.com, accessed on 15 January 2021), following the previously reported methods. (For details, see Supplementary Material).
(§2) As mentioned in the introduction, to get insights about the kinase inhibition profile of the hybrid small molecule 5a, an in vitro screening over a panel of 14 cancer-related kinases was carried out. Accordingly, 10 µM concentrations of compound 5a were used in a kinase inhibition assay over various kinase groups and families in the presence of 10 µM ATP using HotSpotSM technology. To get a comprehensive picture of the inhibitory activities of the tested compound (5a) against the kinase panel, data are illustrated in Table 1. […] Compound 5a was also able to suppress the kinase activity of the epidermal growth factor receptor (EGFR), platelet-derived growth factor receptor-alpha (PDGFRα), and cyclin-dependent kinase 2 (CDK2) with modest inhibition values of 26.99 ± 0.9, 24.0 ± 0.4, and 20.1 ± 0.1%, respectively. […] Several studies have confirmed direct relationships between the most affected kinases (FMS, LCK, LYN, and DAPK1) and different human disorders including cancer.
(§3) 5. Protocol of Kinase assay
(§4) Kinases inhibitory activities were assessed by the HotSpot assay platform, which contained specific kinase/substrate pairs along with required cofactors. Base reaction buffer: 20 mM Hepes (pH 7.5), 10 mM MgCl2, 1 mM EGTA, 0.02% Brij35, 0.02 mg/ml BSA, 0.1 mM Na3VO4, 2 mM DTT, 1% DMSO. Testing compounds were dissolved in 100% DMSO to specific concentration. The serial dilution was conducted by Integra Viaflo Assist in DMSO. The reaction mixture containing the examined compound and 33P-ATP was incubated at room temperature for 2h and radioactivity was detected by filter-binding method. Kinase activity data were expressed as the percent remaining kinase activity in test samples compared to vehicle (dimethyl sulfoxide) reactions. IC50 values and curve fits were obtained using Prism (GraphPad Software).

For series [2], the target named is T2, BRAF (Homo sapiens, UniProt P15056).
T2 construct: purchased Reaction Biology Corp
The description is as above. Type of series: biochemical. The settings on record: single dose of 10 µM; 10 µM ATP as printed; read-out: Percent Inhibition, BRAF. The protocol:
as §1, §2, §3, §4
(§5) 6. Biology raw data for IC50 determination
(§6) Paper ID Cpd ID NSC Number

In series [3] the target is T3, CDK2/cyclin A (Homo sapiens, UniProt P24941).
T3 construct: purchased Reaction Biology Corp
The description is as above. Format: biochemical. The settings on record: single dose of 10 µM; 10 µM ATP as printed; read-out: Percent Inhibition, CDK2/cyclin A. The protocol: as §1, §2, §3, §4, §5, §6

The target of series [4] is T4, DAPK1 (Homo sapiens, UniProt P53355).
T4 construct: purchased Reaction Biology Corp
The series is described as above. The following applies: single dose of 10 µM; read-out: Percent Inhibition, DAPK1. Format: biochemical. The protocol:
as §1, §2, §3, §4, §5, §6

For series [5], the target named is T5, EGFR (Homo sapiens, UniProt P00533).
T5 construct: purchased Reaction Biology Corp
The description is as above. Type of series: biochemical. The following applies: single dose of 10 µM; 10 µM ATP as printed; read-out: Percent Inhibition, EGFR. The protocol: as §1, §2, §3, §4, §5, §6

Series [6] has as its target T6, FLT1/VEGFR1 (Homo sapiens, UniProt P17948).
T6 construct: purchased Reaction Biology Corp
The series is described as above. Format: biochemical. The settings on record: single dose of 10 µM; 10 µM ATP as printed; read-out: Percent Inhibition, FLT1/VEGFR1. The protocol:
as §1, §2, §3, §4, §5, §6

Series [7] concerns the target T7, JAK3 (Homo sapiens, UniProt P52333).
T7 construct: purchased Reaction Biology Corp
The series is described as above. Type of series: biochemical. The following applies: single dose of 10 µM; read-out: Percent Inhibition, JAK3. The protocol:
as §1, §2, §3, §4, §5, §6

Series [8] has as its target T8, KDR/VEGFR2 (Homo sapiens, UniProt P35968).
T8 construct: purchased Reaction Biology Corp
Described as above. The following applies: single dose of 10 µM; 10 µM ATP as printed; read-out: Percent Inhibition, KDR/VEGFR2. Type of series: biochemical. The protocol: as §1, §2, §3, §4, §5, §6

Series [9] concerns the target T9, LCK (Homo sapiens, UniProt P06239).
T9 construct: purchased Reaction Biology Corp
Described as above. Format: biochemical. The settings on record: for inhibition at 10 µM: single dose of 10 µM, 10 µM ATP as printed, read-out: Percent Inhibition, LCK. The protocol:
as §1, §2, §3, §4, §5, §6

Series [10] addresses T10, LYN (Homo sapiens, UniProt P07948).
T10 construct: purchased Reaction Biology Corp
The description is as above. Format: biochemical. The settings on record: for inhibition at 10 µM: single dose of 10 µM, 10 µM ATP as printed, read-out: Percent Inhibition, LYN. The protocol:
as §1, §2, §3, §4, §5, §6

The target in series [11] is T11, PAK1 (Homo sapiens, UniProt Q13153).
T11 construct: purchased Reaction Biology Corp
Described as above. Format: biochemical. The following applies: single dose of 10 µM; read-out: Percent Inhibition, PAK1. The protocol: as §1, §2, §3, §4, §5, §6

In series [12] the target is T12, PDGFRα (Homo sapiens, UniProt P16234).
T12 construct: purchased Reaction Biology Corp
The description is as above. Type of series: biochemical. The settings on record: single dose of 10 µM; 10 µM ATP as printed; read-out: Percent Inhibition, PDGFRα. The protocol: as §1, §2, §3, §4, §5, §6

The target in series [13] is T13, c-MER (Homo sapiens, UniProt Q12866).
T13 construct: purchased Reaction Biology Corp
Described as above. Format: biochemical. The settings on record: single dose of 10 µM; 10 µM ATP as printed; read-out: Percent Inhibition, c-MER. The protocol: as §1, §2, §3, §4, §5, §6

The target in series [14] is T14, c-MET (Homo sapiens, UniProt P08581).
T14 construct: purchased Reaction Biology Corp
The description is as above. The settings on record: single dose of 10 µM; 10 µM ATP as printed; read-out: Percent Inhibition, c-MET. Type of series: biochemical. The protocol:
as §1, §2, §3, §4, §5, §6

Series [15] has as its system panel of 60 different tumor cell lines. Briefly: NCI antitumor assay, panel of 60 tumor cell lines. Type of series: cell-based. The settings on record: single dose 10 µM, result in words. The protocol:
The antitumor assay was performed according to the protocol of the Drug Evaluation Branch, NCI, Bethesda. A 48 h drug exposure protocol was adopted, and sulforhodamine B (SRB) assay was utilized to assess the cell growth and viability, as reported earlier.
The inhibition results of tumor cell growth by the newly synthesized compounds (5a–5g) are described in Table 4. The reported measurements have been performed at the NIH National Cancer Institute, USA by a standardized assay including a panel of 60 different tumor cell lines (Supplementary Data). The following cancer cell types were included in these assays: Leukemia, non-small cell lung cancer, colon cancer, CNS cancer, melanoma, ovarian cancer, renal cancer, prostate, and breast cancer. […] Additionally, the 3,4-dimethoxy substituted compound (5b) also suffered poor activity against the cancer cell lines.

The mark [16] stands for this setting: single dose of 10 µM, 10 µM ATP as printed.
[17] abbreviates: 10-dose, 3-fold serial dilution starting at 100 μM.

Molecules are shown by their SMILES. Several values for one entry are separate records, joined by “and”; a condition that tells them apart may be missing. Equal values may be shown once. Read-outs that look alike come from different tables or passages of the source.

T1 sequence (P07333 20-972): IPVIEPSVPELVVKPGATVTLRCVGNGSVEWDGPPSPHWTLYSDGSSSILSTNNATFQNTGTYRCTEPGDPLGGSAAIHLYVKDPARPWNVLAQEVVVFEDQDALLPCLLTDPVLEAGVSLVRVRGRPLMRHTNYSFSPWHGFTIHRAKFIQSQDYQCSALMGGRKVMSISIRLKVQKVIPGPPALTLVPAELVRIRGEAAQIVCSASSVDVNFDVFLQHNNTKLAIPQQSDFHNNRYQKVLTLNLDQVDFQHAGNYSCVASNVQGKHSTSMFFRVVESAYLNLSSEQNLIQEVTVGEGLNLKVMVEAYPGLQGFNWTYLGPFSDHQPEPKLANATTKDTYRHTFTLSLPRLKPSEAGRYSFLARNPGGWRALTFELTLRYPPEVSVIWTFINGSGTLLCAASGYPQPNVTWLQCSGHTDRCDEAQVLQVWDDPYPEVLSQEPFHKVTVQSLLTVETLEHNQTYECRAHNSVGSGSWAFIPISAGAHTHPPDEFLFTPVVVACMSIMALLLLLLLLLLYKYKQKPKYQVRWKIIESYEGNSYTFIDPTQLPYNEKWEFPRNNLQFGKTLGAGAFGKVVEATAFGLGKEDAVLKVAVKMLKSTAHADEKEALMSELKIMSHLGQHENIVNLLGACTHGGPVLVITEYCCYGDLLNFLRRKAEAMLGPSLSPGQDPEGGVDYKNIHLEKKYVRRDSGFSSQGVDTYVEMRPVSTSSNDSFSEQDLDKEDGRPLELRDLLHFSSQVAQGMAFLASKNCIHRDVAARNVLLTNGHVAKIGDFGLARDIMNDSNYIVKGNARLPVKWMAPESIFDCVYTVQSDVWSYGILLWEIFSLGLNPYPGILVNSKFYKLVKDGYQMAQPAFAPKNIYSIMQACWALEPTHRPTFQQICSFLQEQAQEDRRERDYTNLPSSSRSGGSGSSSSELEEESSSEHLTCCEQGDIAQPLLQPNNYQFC
T10 sequence (P07948 whole entry): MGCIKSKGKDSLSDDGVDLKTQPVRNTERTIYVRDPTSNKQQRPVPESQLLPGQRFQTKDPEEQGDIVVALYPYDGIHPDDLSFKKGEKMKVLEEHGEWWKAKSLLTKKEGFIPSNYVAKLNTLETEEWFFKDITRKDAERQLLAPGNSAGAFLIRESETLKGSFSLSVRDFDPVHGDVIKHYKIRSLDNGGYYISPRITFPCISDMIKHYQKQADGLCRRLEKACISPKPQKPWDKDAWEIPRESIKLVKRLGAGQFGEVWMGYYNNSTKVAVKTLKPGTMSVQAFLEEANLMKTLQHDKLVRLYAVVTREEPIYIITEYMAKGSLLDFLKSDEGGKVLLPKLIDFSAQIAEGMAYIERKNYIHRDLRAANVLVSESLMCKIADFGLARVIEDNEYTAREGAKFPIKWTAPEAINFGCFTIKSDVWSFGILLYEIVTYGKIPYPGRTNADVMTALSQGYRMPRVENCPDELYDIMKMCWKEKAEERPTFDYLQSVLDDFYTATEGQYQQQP
T4 sequence (P53355 whole entry): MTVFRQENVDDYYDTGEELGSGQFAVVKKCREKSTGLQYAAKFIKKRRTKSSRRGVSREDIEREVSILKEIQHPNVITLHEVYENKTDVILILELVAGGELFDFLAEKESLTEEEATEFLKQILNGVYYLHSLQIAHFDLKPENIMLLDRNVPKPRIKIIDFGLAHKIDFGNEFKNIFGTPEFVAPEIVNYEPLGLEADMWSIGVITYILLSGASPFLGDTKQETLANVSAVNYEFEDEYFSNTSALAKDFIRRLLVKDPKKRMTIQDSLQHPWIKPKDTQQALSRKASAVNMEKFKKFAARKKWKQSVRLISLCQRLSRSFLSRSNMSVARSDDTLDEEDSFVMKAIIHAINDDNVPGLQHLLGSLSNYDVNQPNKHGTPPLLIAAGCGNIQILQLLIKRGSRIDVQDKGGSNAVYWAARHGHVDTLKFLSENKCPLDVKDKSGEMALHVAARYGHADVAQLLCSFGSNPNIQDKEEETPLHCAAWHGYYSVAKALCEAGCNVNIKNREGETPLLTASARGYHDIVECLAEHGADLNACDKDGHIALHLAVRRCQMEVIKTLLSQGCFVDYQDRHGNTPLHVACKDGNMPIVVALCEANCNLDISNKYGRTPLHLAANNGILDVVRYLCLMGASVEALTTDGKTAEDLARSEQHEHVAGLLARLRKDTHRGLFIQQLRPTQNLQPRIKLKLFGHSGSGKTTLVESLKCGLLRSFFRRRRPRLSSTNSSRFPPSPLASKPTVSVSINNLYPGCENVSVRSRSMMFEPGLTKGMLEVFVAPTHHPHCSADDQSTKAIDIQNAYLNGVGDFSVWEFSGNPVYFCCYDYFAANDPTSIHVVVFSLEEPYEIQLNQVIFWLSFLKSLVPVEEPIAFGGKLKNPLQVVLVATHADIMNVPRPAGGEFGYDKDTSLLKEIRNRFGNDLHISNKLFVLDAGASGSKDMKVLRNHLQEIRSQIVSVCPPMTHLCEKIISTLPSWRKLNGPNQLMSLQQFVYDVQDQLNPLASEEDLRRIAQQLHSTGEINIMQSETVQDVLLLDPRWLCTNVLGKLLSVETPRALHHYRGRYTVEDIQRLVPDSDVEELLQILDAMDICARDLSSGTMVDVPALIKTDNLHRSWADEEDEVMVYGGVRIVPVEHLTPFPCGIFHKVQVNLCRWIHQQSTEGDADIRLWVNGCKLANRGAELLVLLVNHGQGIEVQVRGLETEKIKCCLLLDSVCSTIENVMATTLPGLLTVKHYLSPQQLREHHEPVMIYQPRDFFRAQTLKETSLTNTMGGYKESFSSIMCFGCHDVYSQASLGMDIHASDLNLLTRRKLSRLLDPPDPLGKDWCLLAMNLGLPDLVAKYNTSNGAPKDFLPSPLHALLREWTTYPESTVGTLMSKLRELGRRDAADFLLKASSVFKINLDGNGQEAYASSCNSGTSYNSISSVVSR
T9 sequence (P06239 whole entry): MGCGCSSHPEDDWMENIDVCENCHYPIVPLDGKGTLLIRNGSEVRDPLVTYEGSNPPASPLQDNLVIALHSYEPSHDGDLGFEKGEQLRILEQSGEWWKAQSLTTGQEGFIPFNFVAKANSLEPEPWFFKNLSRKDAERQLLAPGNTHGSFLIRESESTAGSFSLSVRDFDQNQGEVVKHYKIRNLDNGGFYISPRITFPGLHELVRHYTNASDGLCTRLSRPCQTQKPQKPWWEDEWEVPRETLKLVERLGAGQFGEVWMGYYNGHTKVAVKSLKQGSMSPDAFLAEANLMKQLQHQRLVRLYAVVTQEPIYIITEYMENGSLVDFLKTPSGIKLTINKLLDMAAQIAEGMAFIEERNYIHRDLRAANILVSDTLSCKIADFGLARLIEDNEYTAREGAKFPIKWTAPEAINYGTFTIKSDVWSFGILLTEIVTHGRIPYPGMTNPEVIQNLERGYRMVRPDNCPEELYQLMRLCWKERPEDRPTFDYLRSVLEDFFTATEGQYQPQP
T11 sequence (Q13153 whole entry): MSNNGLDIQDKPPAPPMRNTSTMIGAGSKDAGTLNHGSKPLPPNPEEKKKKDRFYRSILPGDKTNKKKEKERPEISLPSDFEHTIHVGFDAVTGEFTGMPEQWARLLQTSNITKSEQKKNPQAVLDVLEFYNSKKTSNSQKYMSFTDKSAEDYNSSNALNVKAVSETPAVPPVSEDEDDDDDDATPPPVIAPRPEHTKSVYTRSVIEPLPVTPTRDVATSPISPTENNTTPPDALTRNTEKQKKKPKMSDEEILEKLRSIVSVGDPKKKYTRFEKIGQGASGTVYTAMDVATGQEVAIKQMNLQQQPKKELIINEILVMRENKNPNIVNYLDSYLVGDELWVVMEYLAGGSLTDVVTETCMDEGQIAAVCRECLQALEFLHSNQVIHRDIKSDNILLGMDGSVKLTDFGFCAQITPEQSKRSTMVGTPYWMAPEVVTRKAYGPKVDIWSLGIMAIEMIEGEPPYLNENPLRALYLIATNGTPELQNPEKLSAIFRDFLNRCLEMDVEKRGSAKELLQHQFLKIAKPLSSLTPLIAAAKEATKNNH
T12 sequence (P16234 24-1089): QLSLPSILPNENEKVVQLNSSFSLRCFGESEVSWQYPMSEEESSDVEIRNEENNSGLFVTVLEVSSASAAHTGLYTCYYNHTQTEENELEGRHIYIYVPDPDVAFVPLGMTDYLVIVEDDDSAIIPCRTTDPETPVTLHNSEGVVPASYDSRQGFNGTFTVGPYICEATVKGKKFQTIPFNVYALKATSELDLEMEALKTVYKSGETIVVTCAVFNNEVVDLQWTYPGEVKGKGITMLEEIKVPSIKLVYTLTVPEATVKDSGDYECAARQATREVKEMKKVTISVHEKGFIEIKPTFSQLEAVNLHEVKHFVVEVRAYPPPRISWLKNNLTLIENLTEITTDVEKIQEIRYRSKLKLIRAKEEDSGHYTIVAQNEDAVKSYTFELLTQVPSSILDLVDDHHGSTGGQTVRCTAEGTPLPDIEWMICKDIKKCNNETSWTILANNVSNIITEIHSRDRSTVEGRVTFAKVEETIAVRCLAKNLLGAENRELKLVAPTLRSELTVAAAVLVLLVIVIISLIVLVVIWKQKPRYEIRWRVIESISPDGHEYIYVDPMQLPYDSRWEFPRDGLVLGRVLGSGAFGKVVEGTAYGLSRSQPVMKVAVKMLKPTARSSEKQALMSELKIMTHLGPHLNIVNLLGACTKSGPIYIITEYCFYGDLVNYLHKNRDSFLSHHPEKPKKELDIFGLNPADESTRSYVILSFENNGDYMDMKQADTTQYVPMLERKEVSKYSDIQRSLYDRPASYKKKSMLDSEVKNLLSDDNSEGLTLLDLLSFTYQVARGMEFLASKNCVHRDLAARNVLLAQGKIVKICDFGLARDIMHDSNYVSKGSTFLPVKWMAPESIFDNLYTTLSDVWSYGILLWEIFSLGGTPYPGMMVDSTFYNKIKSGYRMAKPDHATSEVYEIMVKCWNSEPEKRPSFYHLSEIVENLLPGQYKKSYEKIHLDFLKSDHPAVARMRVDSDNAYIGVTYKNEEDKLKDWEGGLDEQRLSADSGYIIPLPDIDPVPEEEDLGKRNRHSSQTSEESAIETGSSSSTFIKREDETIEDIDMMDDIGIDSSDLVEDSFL

For orientation: melting point means the temperature of the solid-liquid transition. In the case of `COc1ccc(Oc2nc(Nc3ccc(N4CCOCC4)cc3)ncc2NC(=O)c2ccc3c(c2)OCO3)cc1` [5a, N-(4-(4-Methoxyphenoxy)-2-((4-morpholinophenyl)amino)pyrimidin-5-yl)benzo[d][1,3]dioxole-5-carboxamide], the melting point lay in the range of 205.9 to 206.9 °C. Also, the inhibition at 10 µM in series [1] (setting [16]) turned out to be 82.5 ± 0.6%. For the same molecule, the inhibition at 10 µM in series [2] came to 4.1 ± 10.5%. The inhibition at 10 µM in series [3] was found to be 20.1 ± 0.1%. The inhibition at 10 µM in series [4] is 55 ± 1.1%. In series [5], the inhibition at 10 µM turned out to be 27 ± 0.9%. Also, the inhibition at 10 µM in [6] was -2.4 ± 1.7%. In addition, the inhibition at 10 µM in series [7] came out at 11.2 ± 1.2%. For the same molecule, the inhibition at 10 µM in [8] is 7.9 ± 1.4%. For the same molecule, in [9], the inhibition at 10 µM worked out at 81.4 ± 0.6%. Further, the inhibition at 10 µM in series [10] was determined as 75.2%. Besides, in series [11], the inhibition at 10 µM was -29.1 ± 3.4%. The inhibition at 10 µM in series [12] came out at 24 ± 0.4%. In [13], the inhibition at 10 µM turned out to be 4.4 ± 0.1%. Also, in [14], the inhibition at 10 µM stood at 12 ± 13.7%.

In turn, `COc1ccc(Oc2nc(Nc3ccc(N4CCOCC4)cc3)ncc2NC(=O)c2ccc(OC)c(OC)c2)cc1` [5b, 3,4-Dimethoxy-N-(4-(4-methoxyphenoxy)-2-((4-morpholinophenyl)amino)pyrimidin-5-yl)benzamide] registered a melting point of 119.1 to 120.1 °C. In series [1] (setting [16]), the inhibition at 10 µM is 44.1 ± 0.2%. Further, in [4], the inhibition at 10 µM was found to be 65 ± 1.2%. Also, the inhibition at 10 µM in series [9] amounted to 62.3 ± 0.8%. In addition, the inhibition at 10 µM in series [10] amounted to 36.9 ± 4.5%. In [15], the “inhibitory effects on the different cancer cell lines” value is “moderate to poor”.

Consider `COc1ccc(Oc2nc(Nc3ccc(N4CCOCC4)cc3)ncc2NC(=O)c2cc(OC)c(OC)c(OC)c2)cc1` [5c, 3,4,5-Trimethoxy-N-(4-(4-methoxyphenoxy)-2-((4-morpholinophenyl)amino)pyrimidin-5-yl)benzamide], for which the melting point was 179.5 to 180.5 °C. Moreover, the inhibition at 10 µM in [1] (setting [16]) was 69.9 ± 0.4%. In series [4], the inhibition at 10 µM stood at 50 ± 0.1%. For the same molecule, the inhibition at 10 µM in [9] came to 19.4 ± 0.9%. For the same molecule, in series [10], the inhibition at 10 µM was -1.6 ± 0.3%.

The term IC50 denotes the concentration needed to halve the response being measured. Read a high IC50 as a need for much substance. As to `CCOc1cc(OCC)cc(C(=O)Nc2cnc(Nc3ccc(N4CCOCC4)cc3)nc2Oc2ccc(OC)cc2)c1` [5d, 3,5-Diethoxy-N-(4-(4-methoxyphenoxy)-2-((4-morpholinophenyl)amino)pyrimidin-5-yl)benzamide], the IC50 in series [1] was determined as 213 ± 1 nM. Also, the “fold more potent than imatinib over FMS” value in [1] is roughly 5 fold. Besides, the inhibition at 10 µM in [1] (setting [16]) worked out at 95.1 ± 0.3%; in series [4], 51.6 ± 0.5%; in [9] it was 38.3 ± 4.2%; in [10], 31.5 ± 5.8%. Besides, in series [15], the “inhibitory effects on the different cancer cell lines” value is reported as “moderate to poor”.

Regarding `COc1ccc(Oc2nc(Nc3ccc(N4CCOCC4)cc3)ncc2NC(=O)Cc2cc(OC)cc(OC)c2)cc1` [5e, 2-(3,5-Dimethoxyphenyl)-N-(4-(4-methoxyphenoxy)-2-((4-morpholinophenyl)amino)pyrimidin-5-yl)acetamide], the melting point lay in the range of 152.7 to 153.7 °C. Moreover, the inhibition at 10 µM in [1] (setting [16]) is 75.5 ± 0.8%. Further, the inhibition at 10 µM in [4] came out at 47.1 ± 0.7%. In [9], the inhibition at 10 µM was 39.5 ± 0.4%. In [10], the inhibition at 10 µM was determined as 7.9 ± 0.4%. In addition, the “inhibitory effects on the different cancer cell lines” value in series [15] is reported as “moderate to poor”.

For `COc1ccc(Oc2nc(Nc3ccc(N4CCOCC4)cc3)ncc2NC(=O)c2ccnc([N+](=O)[O-])c2)cc1` [5f, N-(4-(4-Methoxyphenoxy)-2-((4-morpholinophenyl)amino)pyrimidin-5-yl)-2-nitroisonicotinamide], the melting point was 170 to 171 °C. The inhibition at 10 µM in series [1] (setting [16]) was 65.4 ± 0.1%. In addition, in series [4], the inhibition at 10 µM is 65.5 ± 1.4%. Moreover, the inhibition at 10 µM in series [9] worked out at 72.6 ± 0.6%. Moreover, in [10], the inhibition at 10 µM is 34.1 ± 2.2%. The “inhibitory effects on the different cancer cell lines” value in series [15] is “moderate to poor”.

As for `COc1ccc(Oc2nc(Nc3ccc(N4CCOCC4)cc3)ncc2NC(=O)c2cccc(SC)c2)cc1` [5g, N-(4-(4-Methoxyphenoxy)-2-((4-morpholinophenyl)amino)pyrimidin-5-yl)-3-(methylthio)benzamide], the IC50 in series [1] turned out to be 110 ± 8 nM; in series [9] (setting [17]), 87.7 ± 8.3 nM; in [10] (setting [17]), 169 ± 31 nM. Moreover, the “fold more potent than imatinib over FMS” value in series [1] is ~ 9 fold and 9 fold. In addition, the inhibition at 10 µM turned out to be 90.6 ± 0.8% in series [1], 54.6 ± 0.8% in [4], 96.9 ± 0.3% in series [9] and 96.4 ± 0.1% in [10]. For the same molecule, in series [9] (from IC50 values), the “fold more potent than imatinib over LCK” value was roughly 2 fold.
